From ChEMBL document CHEMBL1152405, “Bis-anthracenyl isoxazolyl amides have enhanced anticancer activity” (Bioorg Med Chem Lett, 2009)

Experiments:
Format in all cases: functional, cell-based
SNB-19 [1] = experiment: Antitumor activity against human SNB19 cells after 2 hrs; conditions: SNB-19, 2 h
SNB-19 [2] = experiment: Antitumor activity against human SNB19 cells after 24 hrs; conditions: SNB-19, 24 h
SNB-19 [3] = experiment: Antitumor activity against human SNB19 cells after 48 hrs; conditions: SNB-19, 48 h

IC50 (SNB-19 [1]): 114 µM | IC50 (SNB-19 [2]): 23.9 µM | IC50 (SNB-19 [3]): 30.1 µM
SMILES: Cc1onc(-c2c3ccccc3c(Cl)c3ccccc23)c1C(=O)NCCCN(C)CCCNC(=O)c1c(-c2c3ccccc3c(Cl)c3ccccc23)noc1C
